Data reported in ChEMBL document CHEMBL3826931, “Salinomycin Hydroxamic Acids: Synthesis, Structure, and Biological Activity of Polyether Ionophore Hybrids” (ACS Med Chem Lett, 2016).
The source made the active and inactive calls. The calls are words filed in the database; no cut-off is given here.

Key:
[1] = tested on: JIMT-1; test: Reduction in aldehyde dehydrogenase levels in human JIMT1 cells at 0.52 uM by ALDEFLUOR assay (reference value: 30 to 60%); format: functional; parameters: scale not given: the % may be the effect or the level left
[2] = Cytotoxicity against human JIMT1 cells after 72 hrs by MTT assay; format: functional, cell-based; conditions: JIMT-1, 72 h
[3] = tested on: MCF7; test: Cytotoxicity against human MCF7 cells after 72 hrs by MTT assay; format: functional, cell-based; conditions: MCF7, 72 h
[4] = Ionophoric activity in large unilamellar POPC/POPG (3:1) vesicles assessed as relaxation of potassium coupled-proton gradient by measuring decrease in internal pH at 1 pM after 300 secs by ratiometric pH reporter pyranin based spectroscopic analysis; format: ADME; conditions: 5 min
[5] = tested on: JIMT-1; test: Reduction in aldehyde dehydrogenase levels in human JIMT1 cells at 5 to 10 uM by ALDEFLUOR assay; format: functional, cell-based
[6] = Ionophoric activity in large unilamellar POPC/POPG (3:1) vesicles assessed as relaxation of potassium coupled-proton gradient by measuring decrease in internal pH at 100 pM after 300 secs by ratiometric pH reporter pyranin based spectroscopic analysis; format: ADME; conditions: 5 min, 0.0001 µM

| Activity [6] | SMILES | Activity [1] [%] | IC50 [2] [µM] | IC50 [3] [µM] | Activity [4] | Activity [5] |
| --- | --- | --- | --- | --- | --- | --- |
|  | CC[C@@H](C(=O)[C@@H](C)[C@@H](O)[C@H](C)[C@@H]1O[C@@H]([C@@H](CC)C(=O)O)CC[C@@H]1C)[C@H]1O[C@]2(C=C[C@@H](O)[C@]3(CC[C@@](C)([C@H]4CC[C@](O)(CC)[C@H](C)O4)O3)O2)[C@H](C)C[C@@H]1C [SALINOMYCIN] | 60 | 0.52 | 0.59 | Active |  |
|  | CC[C@@H](C(=O)[C@@H](C)[C@@H](O)[C@H](C)[C@@H]1O[C@@H]([C@@H](CC)C(=O)N(C)O)CC[C@@H]1C)[C@H]1O[C@]2(C=C[C@@H](O)[C@]3(CC[C@@](C)([C@H]4CC[C@](O)(CC)[C@H](C)O4)O3)O2)[C@H](C)C[C@@H]1C |  | > 20 | > 20 |  | inactive |
|  | CC[C@@H](C(=O)[C@@H](C)[C@@H](O)[C@H](C)[C@@H]1O[C@@H]([C@@H](CC)C(=O)N(C)OC)CC[C@@H]1C)[C@H]1O[C@]2(C=C[C@@H](O)[C@]3(CC[C@@](C)([C@H]4CC[C@](O)(CC)[C@H](C)O4)O3)O2)[C@H](C)C[C@@H]1C |  | 10.1 | 9.3 |  | inactive |
|  | CC[C@@H](C(=O)[C@@H](C)[C@@H](O)[C@H](C)[C@@H]1O[C@@H]([C@@H](CC)C(=O)NOC)CC[C@@H]1C)[C@H]1O[C@]2(C=C[C@@H](O)[C@]3(CC[C@@](C)([C@H]4CC[C@](O)(CC)[C@H](C)O4)O3)O2)[C@H](C)C[C@@H]1C |  | 17.3 | 16.3 |  | inactive |
| Active | CC[C@@H](C(=O)[C@@H](C)[C@@H](O)[C@H](C)[C@@H]1O[C@@H]([C@@H](CC)C(=O)NO)CC[C@@H]1C)[C@H]1O[C@]2(C=C[C@@H](O)[C@]3(CC[C@@](C)([C@H]4CC[C@](O)(CC)[C@H](C)O4)O3)O2)[C@H](C)C[C@@H]1C |  | 6.7 | 10 |  | inactive |
